The NIST ThermoML archive (doi:10.1016/j.jct.2012.10.011)

What was measured:
[1] = for molar entropy: 101.33 kPa, Vacuum adiabatic calorimetry; for vapor or sublimation pressure: Closed cell (Static) method
[2] = molar heat capacity at constant pressure; settings: 101.33 kPa, Vacuum adiabatic calorimetry
[3] = Molar enthalpy of transition or fusion; settings: Crystal; Adiabatic calorimetry
[4] = molar enthalpy of vaporization or sublimation; settings: 298.15 K; Liquid; Static calorimetry

CN=C=O [methyl isocyanate]
Settings	Triple point temperature [K]	molar entropy [J/K/mol]	molar heat capacity at constant pressure [J/K/mol]	vapor or sublimation pressure [kPa]
[1], 20 K, Crystal	–	2.44	–	–
[1], 30 K, Crystal	–	6.933	–	–
[1], 40 K, Crystal	–	12.87	–	–
[1], 50 K, Crystal	–	19.5	–	–
[1], 60 K, Crystal	–	26.39	–	–
[1], 70 K, Crystal	–	33.31	–	–
[1], 80 K, Crystal	–	40.14	–	–
[1], 90 K, Crystal	–	46.89	–	–
[1], 100 K, Crystal	–	53.42	–	–
[1], 110 K, Crystal	–	59.72	–	–
[1], 120 K, Crystal	–	65.78	–	–
[1], 130 K, Crystal	–	71.59	–	–
[1], 140 K, Crystal	–	77.17	–	–
[1], 150 K, Crystal	–	82.52	–	–
[1], 160 K, Crystal	–	87.67	–	–
[1], 170 K, Crystal	–	92.65	–	–
[1], 178.47 K, Liquid	–	–	–	0.024
[1], 180 K, Liquid	–	139.42	–	–
[1], 184.03 K, Liquid	–	–	–	0.036
[1], 189.11 K, Liquid	–	–	–	0.04666
[1], 190 K, Liquid	–	145	–	–
[1], 194.19 K, Liquid	–	–	–	0.06666
[1], 199.43 K, Liquid	–	–	–	0.1293
[1], 200 K, Liquid	–	150.29	–	–
[1], 204.46 K, Liquid	–	–	–	0.2053
[1], 209.49 K, Liquid	–	–	–	0.3106
[1], 210 K, Liquid	–	155.31	–	–
[1], 214.49 K, Liquid	–	–	–	0.4826
[1], 219.48 K, Liquid	–	–	–	0.7226
[1], 220 K, Liquid	–	160.1	–	–
[1], 224.44 K, Liquid	–	–	–	1.048
[1], 229.43 K, Liquid	–	–	–	1.5
[1], 230 K, Liquid	–	164.68	–	–
[1], 234.35 K, Liquid	–	–	–	2.12
[1], 239.21 K, Liquid	–	–	–	2.938
[1], 240 K, Liquid	–	169.08	–	–
[1], 244.16 K, Liquid	–	–	–	4.036
[1], 249.07 K, Liquid	–	–	–	5.45
[1], 250 K, Liquid	–	173.31	–	–
[1], 253.98 K, Liquid	–	–	–	7.286
[1], 258.88 K, Liquid	–	–	–	9.597
[1], 260 K, Liquid	–	177.38	–	–
[1], 263.72 K, Liquid	–	–	–	12.47
[1], 268.59 K, Liquid	–	–	–	16.03
[1], 270 K, Liquid	–	181.33	–	–
[1], 273.4 K, Liquid	–	–	–	20.31
[1], 278.1 K, Liquid	–	–	–	25.44
[1], 280 K, Liquid	–	185.16	–	–
[1], 282.71 K, Liquid	–	–	–	31.41
[1], 287.27 K, Liquid	–	–	–	38.39
[1], 290 K, Liquid	–	188.89	–	–
[1], 296.38 K, Liquid	–	–	–	56.22
[1], 297.07 K, Liquid	–	–	–	57.78
[1], 300 K, Liquid	–	192.52	–	–
[1], Crystal, Adiabatic calorimetry	178.46	–	–	–
[2], 14.71 K, Crystal	–	–	2.971	–
[2], 15.61 K, Crystal	–	–	3.494	–
[2], 16.68 K, Crystal	–	–	4.234	–
[2], 18.13 K, Crystal	–	–	5.318	–
[2], 19.93 K, Crystal	–	–	6.837	–
[2], 20 K, Crystal	–	–	6.9	–
[2], 21.81 K, Crystal	–	–	8.41	–
[2], 25.1 K, Crystal	–	–	11.4	–
[2], 27.08 K, Crystal	–	–	13.31	–
[2], 29.42 K, Crystal	–	–	15.5	–
[2], 30 K, Crystal	–	–	16.07	–
[2], 31.96 K, Crystal	–	–	17.95	–
[2], 34.72 K, Crystal	–	–	20.64	–
[2], 38.26 K, Crystal	–	–	23.96	–
[2], 40 K, Crystal	–	–	25.53	–
[2], 42.59 K, Crystal	–	–	27.81	–
[2], 47.01 K, Crystal	–	–	31.56	–
[2], 50 K, Crystal	–	–	34.07	–
[2], 51.57 K, Crystal	–	–	35.36	–
[2], 56.6 K, Crystal	–	–	39.11	–
[2], 60 K, Crystal	–	–	41.49	–
[2], 60.37 K, Crystal	–	–	41.76	–
[2], 62.3 K, Crystal	–	–	43.18	–
[2], 65.89 K, Crystal	–	–	45.61	–
[2], 70 K, Crystal	–	–	48.2	–
[2], 71.87 K, Crystal	–	–	49.37	–
[2], 78.77 K, Crystal	–	–	53.47	–
[2], 80 K, Crystal	–	–	54.31	–
[2], 85.79 K, Crystal	–	–	57.74	–
[2], 88.54 K, Crystal	–	–	59.08	–
[2], 90 K, Crystal	–	–	59.83	–
[2], 91.98 K, Crystal	–	–	60.67	–
[2], 94.33 K, Crystal	–	–	61.76	–
[2], 97.68 K, Crystal	–	–	63.18	–
[2], 100 K, Crystal	–	–	64.14	–
[2], 100.44 K, Crystal	–	–	64.31	–
[2], 102.2 K, Crystal	–	–	64.94	–
[2], 104.38 K, Crystal	–	–	65.94	–
[2], 109.48 K, Crystal	–	–	67.86	–
[2], 110 K, Crystal	–	–	68.03	–
[2], 112.6 K, Crystal	–	–	68.66	–
[2], 115.84 K, Crystal	–	–	69.87	–
[2], 118.15 K, Crystal	–	–	70.67	–
[2], 120 K, Crystal	–	–	71.25	–
[2], 120.45 K, Crystal	–	–	71.25	–
[2], 121.38 K, Crystal	–	–	71.63	–
[2], 126.84 K, Crystal	–	–	73.26	–
[2], 128.41 K, Crystal	–	–	73.55	–
[2], 130 K, Crystal	–	–	73.97	–
[2], 134.41 K, Crystal	–	–	75.06	–
[2], 134.59 K, Crystal	–	–	75.1	–
[2], 135.09 K, Crystal	–	–	75.27	–
[2], 136.89 K, Crystal	–	–	75.48	–
[2], 136.94 K, Crystal	–	–	75.65	–
[2], 140 K, Crystal	–	–	76.36	–
[2], 141.89 K, Crystal	–	–	76.82	–
[2], 141.97 K, Crystal	–	–	76.94	–
[2], 142.35 K, Crystal	–	–	76.96	–
[2], 146.02 K, Crystal	–	–	77.82	–
[2], 148.22 K, Crystal	–	–	78.32	–
[2], 149.33 K, Crystal	–	–	78.45	–
[2], 150 K, Crystal	–	–	78.7	–
[2], 151.79 K, Crystal	–	–	79.04	–
[2], 155.37 K, Crystal	–	–	79.91	–
[2], 156.39 K, Crystal	–	–	80	–
[2], 160 K, Crystal	–	–	81	–
[2], 160.19 K, Crystal	–	–	79.83	–
[2], 161.8 K, Crystal	–	–	81.59	–
[2], 163.79 K, Crystal	–	–	82.42	–
[2], 166.13 K, Crystal	–	–	83.6	–
[2], 167.44 K, Crystal	–	–	83.09	–
[2], 168.2 K, Crystal	–	–	82.26	–
[2], 169.15 K, Crystal	–	–	83.01	–
[2], 169.49 K, Crystal	–	–	82.34	–
[2], 170 K, Crystal	–	–	83.39	–
[2], 171.56 K, Crystal	–	–	83.51	–
[2], 172.5 K, Crystal	–	–	83.39	–
[2], 173.3 K, Crystal	–	–	84.35	–
[2], 180 K, Liquid	–	–	103.4	–
[2], 183.24 K, Liquid	–	–	103.39	–
[2], 186.5 K, Liquid	–	–	103.34	–
[2], 187.36 K, Liquid	–	–	103.26	–
[2], 190 K, Liquid	–	–	103.2	–
[2], 192.13 K, Liquid	–	–	103.09	–
[2], 196.44 K, Liquid	–	–	103.09	–
[2], 197.5 K, Liquid	–	–	102.93	–
[2], 198.47 K, Liquid	–	–	103	–
[2], 200 K, Liquid	–	–	103	–
[2], 201 K, Liquid	–	–	102.97	–
[2], 202.92 K, Liquid	–	–	103	–
[2], 210 K, Liquid	–	–	103	–
[2], 211.33 K, Liquid	–	–	103	–
[2], 219.74 K, Liquid	–	–	103	–
[2], 220 K, Liquid	–	–	103	–
[2], 228.75 K, Liquid	–	–	102.9	–
[2], 230 K, Liquid	–	–	103.1	–
[2], 238.24 K, Liquid	–	–	103.3	–
[2], 240 K, Liquid	–	–	103.4	–
[2], 247.64 K, Liquid	–	–	103.6	–
[2], 250 K, Liquid	–	–	103.8	–
[2], 257.03 K, Liquid	–	–	104.1	–
[2], 260 K, Liquid	–	–	104.3	–
[2], 266.32 K, Liquid	–	–	104.6	–
[2], 270 K, Liquid	–	–	104.9	–
[2], 275.54 K, Liquid	–	–	105.4	–
[2], 280 K, Liquid	–	–	105.8	–
[2], 284.64 K, Liquid	–	–	106.1	–
[2], 290 K, Liquid	–	–	106.7	–
[2], 293.07 K, Liquid	–	–	107	–
[2], 300 K, Liquid	–	–	107.7	–
[2], 301.23 K, Liquid	–	–	107.7	–

Settings	Molar enthalpy of transition or fusion [kcal/mol]	molar enthalpy [kcal/mol]
[3]	1.782	–
[4]	–	6.871
